Experimental data: the OligoGym collection
These antisense oligonucleotides have a phosphorothioate backbone; sugars and methylation of C are not fully specified.

target: CHUK; conditions: ASO
Note: test concentration or dose not given here.

Row | Sequence | remaining target (mRNA or protein) (fraction of control)
1 | CTCTCCAAGTCAAGCTGA | 0.49
2 | CCCTGCATGAACATGACA | 0.47
3 | ACATTGCTGCCCTTTGTC | 0.54
4 | TCTCCTCCAGAACAGTAT | ≥ 1
5 | GCTGTCACTGTAGGAGTG | 0.75
6 | TTCCCGATGCTGGTACAG | 0.63
7 | TCTCGATGTATAATTTTG | ≥ 1
8 | CTTAGCTCTAGGCGACAA | 0.56
9 | AAGTCTCCCCATCTTGAG | ≥ 1
10 | AGCAATACATTCAAATAC | ≥ 1
11 | ATTGGCATGGTTCAACTT | 0.69
12 | GACATAATCTGATCCTCC | ≥ 1
13 | AATTTACACAATCAGATA | ≥ 1
14 | CTACTAAACCGAACTTCT | ≥ 1
15 | TGCCCAGCCGCTCCCGCA | 0.85
16 | TAGAAGAGGCACATCATG | 0.76
17 | TAATCTGGATTTCATGGC | ≥ 1
18 | CATAGTGGATGGCCTTTT | 0.66
19 | CTGAGATCAAAGTGTTCT | ≥ 1
20 | AGGATGTGTACTATCTTC | 0.79

Row | Sequence | remaining target (mRNA or protein) (fraction of control)
21 | AGTATCTGGCTTTCTTTA | ≥ 1
22 | TCAATACGAGACTGTAGT | ≥ 1
23 | CTTAATTGCTATTTTGAG | ≥ 1
24 | CAAGAGAGCGGGCAGAAC | ≥ 1
25 | CTTCTGCTTACAGCCCAA | 0.56
26 | AGAACACATTGAGAGGCT | 0.8
27 | TTCTTGAGAACCAGTATT | ≥ 1
28 | TTAAACTACAAAGGCTAT | ≥ 1
29 | CTGAGGGTCCCAATTCAA | 0.88
30 | TATTTTATGTATTATCTT | ≥ 1
31 | AAATATACACTTTGGATC | ≥ 1
32 | TTACTGAGGGCCACTTCC | 0.48
33 | TGTTCCAGAGATTCCATC | ≥ 1
34 | GGTAACAGAAAAGAAATT | ≥ 1
35 | TGTGTAAGGCTTATTCTC | 0.91
36 | TTCAGCCCACACTTTACG | 0.58
37 | ACAGACAGACGTTCCCGA | 0.85
38 | ATCTTGGCTGCTTCAAAG | 0.6
39 | ATACAGTTTTACTTTTAT | ≥ 1
40 | TGAGCACACGGTCCTGAC | 0.79

target: NCOA1; conditions: ASO

Row | Sequence | remaining target (mRNA or protein) (fraction of control)
41 | AAAGTGGTTATTCAGTCA | 0.71
42 | TTAAAAGTGGTTATTCAG | 0.79
43 | TCCTTTAAAAGTGGTTAT | 0.93
44 | CTTTAAAAGTGGTTATTC | ≥ 1
45 | TGCTTGGTCATAAAGGAT | 0.74
46 | CGAATTCCACCACACTGG | 0.69
47 | TCCGTGCTTGATGCCAGT | 0.34
48 | ATGATGATGAAGCCGAAT | 0.93
49 | ACCTCCTGAAGAGTTAGC | 0.58
50 | ATGCCAACAGGAGCAGTT | 0.51
51 | CCTTGACTACTTGATGAG | 0.77
52 | CTGAGGACTGGAGAACTG | 0.44
53 | TTAGCAGGGTCGGATGAA | 0.4
54 | CTGAAAGTCTGTCATTGT | 0.95
55 | CTACGACCTGAAGAATGG | 0.76
56 | AGCTGTCAATGTCACTAA | 0.43
57 | GTGGTTATTCAGTCAGTA | 0.56
58 | TCCCCGTTTGAACTGGTA | 0.63
59 | TTTAAAAGTGGTTATTCA | 0.74
60 | GGATTGACCGAGGGATTT | 0.52

Row | Sequence | remaining target (mRNA or protein) (fraction of control)
61 | TCATTAATTCCTCCTGAT | 0.48
62 | TCATGATGATGAAGCCGA | 0.58
63 | GGTTATTCAGTCAGTAGC | 0.57
64 | AGTGGTTATTCAGTCAGT | 0.67
65 | CCTTTAAAAGTGGTTATT | ≥ 1
66 | GTCCCCGCCTACCAGATT | 0.56
67 | CTCTTGTTCCATTCTCTT | 0.61
68 | TCCATCTGTTCTTTCTTT | 0.84
69 | TTCCTTTAAAAGTGGTTA | 0.71
70 | GTTCATTCCTGGCATCTG | 0.66
71 | GCGTTGCTTGTTGTGGTG | 0.43
72 | TAAAAGTGGTTATTCAGT | 0.79
73 | AAAAGTGGTTATTCAGTC | 0.62
74 | CTTCCTCACTAAATCTTC | ≥ 1
75 | GAGCTAATACACTGGTCT | 0.55
76 | GGTCTGAGCTCTGCTGGC | 0.24
77 | CATGATGATGAAGCCGAA | 0.7
78 | TGGTTATTCAGTCAGTAG | 0.71
79 | CTGAGGATTGATTCCAGT | 0.67
80 | AAGTGGTTATTCAGTCAG | 0.74

target: PRKACA; conditions: ASO

Row | Sequence | remaining target (mRNA or protein) (fraction of control)
81 | GTTGTCCTTGAAGGAGAACT | ≥ 1
82 | CCAGCATCACCCGCCCGAAG | 0.34
83 | AGCACAAATGAGAAAGTGGG | 0.93
84 | ACCCTCGCAGGATTGGCAGA | 0.47
85 | GCTTGCAGGATGCGCTTTTC | 0.34
86 | CTTCCTCATAGTCGTCAAAG | 0.68
87 | CGCTGCTGGGAGGAAAGACT | 0.48
88 | GGAGCAGCTGGTGTTTCTGT | 0.61
89 | TAGTTTTCAAATATGTTTAC | ≥ 1
90 | GCGGCGGCGTTGCCCATCGC | 0.33
91 | CACACAGGTTGAATCGCCCC | 0.39
92 | TCTGCGAAGAAGGGCGGGTA | ≥ 1
93 | AAGCAACCCACTGAACATGT | 0.62
94 | GAACATCTCCCCGCCGGGCA | 0.87
95 | GGCGGCGGCGGCGTTGCCCA | 0.51
96 | TGCCCATCGCGGCGGCGGCG | 0.71
97 | GCGTTGCCCATCGCGGCGGC | 0.36
98 | CATCGCGGCGGCGGCGGCCG | 0.51

target: WWP1; conditions: ASO

Row | Sequence | remaining target (mRNA or protein) (fraction of control)
99 | AACAGTAGTACTAGTGCAAT | ≥ 1
100 | GTTGTTGTTCTGGTGTTATG | 0.95
101 | ATCTTTGTTCTCCTCAGTCA | 0.92
102 | AGAATGGTAAAGAGAAACCA | ≥ 1
103 | AAATAGTGCCATGGCAATAA | 0.98
104 | ATCATCAACTCTTCTTTCCC | 0.7
105 | ACTAGAGTGCTTGTAGGTAC | ≥ 1
106 | TCAGACACTACTGGAGTACC | 0.76
107 | TTTCTGAGGAAGTCAGTATT | ≥ 1
108 | TCCCAGACTGCTGCCGTACA | 0.47
109 | ATTCCAATTCTGCACTGGTA | ≥ 1
110 | TTCAAAATTTCGGACAGATT | ≥ 1
111 | GAGACGGAGATGAAGGTGTG | ≥ 1
112 | GCAGGCTCAGATGCGAGTGG | ≥ 1
113 | AAATAACGGAAGTGAGCAAG | 0.88
114 | TATGAAAGATGGTCTGGATT | 0.99
115 | TCCCATTGCGAGGATCTTTG | ≥ 1
116 | TAAGCGCCTCCTCAAGTCAT | 0.86
117 | AACATTGAAGCCGAATAGAG | ≥ 1
118 | GTTGGTGCAAATGAGGATGA | 0.95

Row | Sequence | remaining target (mRNA or protein) (fraction of control)
119 | ATACATTGGGTTCAAAACTT | 0.92
120 | GATCCACATAATAGGTTCTA | ≥ 1
121 | AGTATCAATAGATTCCAAAT | ≥ 1
122 | CCTGGTGGCAAAGGTCCATA | ≥ 1
123 | CTTTGTTCCCACCCTGATGG | 0.98
124 | GCATAGCTCCCTGCAATTGG | ≥ 1
125 | GAATTAGAGGTGTCAGGCTC | ≥ 1
126 | TTTGTGTTATGATTCACAAA | 0.95
127 | ATCTGCAGACAATAGTTGTT | ≥ 1
128 | TGTTGTTATCTCTTATCCAG | 0.92
129 | ATTGATCTTTACATGACTAG | 0.83
130 | TGTCTTGATTTGGCTGCTTC | 0.91
131 | ATGTCAACAGAAAAGTACAT | ≥ 1
132 | CACCATAATCAAGTCCTTCT | 0.52
133 | AAGGTTGTGGTCTCTCCCAT | ≥ 1
134 | AATTTCCCAGCCTTCTGGCA | ≥ 1
135 | AACTTCAGGTCATGTGAAGT | ≥ 1
136 | CATAAGCAATTTGTGGACCA | ≥ 1
137 | CTGTTGGAAGGAATCTTCAA | ≥ 1
138 | TATGATCAACAAAGTACCTT | ≥ 1
